Results taken from US20160333006A1, “ARYL LACTA KINASE INHIBITORS” (Bristol-Myers Squibb Company, priority 2014, published 2016).

Assays:
[1] = biological target: T1, GST-Xa-hAAK1 (Homo sapiens, UniProt Q2M2I8); assay: AAK1 kinase assay; format: biochemical; conditions: ATP 22 μM
T1 construct: made in house
Method: The assays were performed in U-bottom 384-well plates. […] The reactions were initiated by the combination of bacterially expressed, GST-Xa-hAAK1 with substrates and test compounds. The reactions were incubated at room temperature for 3 hours and terminated by adding 60 μl of 35 mM EDTA buffer to each sample. The reactions were analyzed on the Caliper LabChip 3000 (Caliper, Hopkinton, Mass.) by electrophoretic separation of the fluorescent substrate and phosphorylated product. […] Compounds were dissolved at 10 mM in dimethylsulfoxide (DMSO) and evaluated at eleven concentrations. IC50 values were derived by non-linear regression analysis.

[2] = biological target: T2, AAK1 (full length human) in HEK293F cells (Homo sapiens, UniProt Q2M2I8); assay: HEK281 cell-based assay (phospho-mu2 Western blot in transfected HEK293F cells); conditions: 3 hours
T2 construct: fused on or other part: HA tag (AAK1/HA in pIRES vector)
T2 sequence (Q2M2I8 1-822 limits assumed): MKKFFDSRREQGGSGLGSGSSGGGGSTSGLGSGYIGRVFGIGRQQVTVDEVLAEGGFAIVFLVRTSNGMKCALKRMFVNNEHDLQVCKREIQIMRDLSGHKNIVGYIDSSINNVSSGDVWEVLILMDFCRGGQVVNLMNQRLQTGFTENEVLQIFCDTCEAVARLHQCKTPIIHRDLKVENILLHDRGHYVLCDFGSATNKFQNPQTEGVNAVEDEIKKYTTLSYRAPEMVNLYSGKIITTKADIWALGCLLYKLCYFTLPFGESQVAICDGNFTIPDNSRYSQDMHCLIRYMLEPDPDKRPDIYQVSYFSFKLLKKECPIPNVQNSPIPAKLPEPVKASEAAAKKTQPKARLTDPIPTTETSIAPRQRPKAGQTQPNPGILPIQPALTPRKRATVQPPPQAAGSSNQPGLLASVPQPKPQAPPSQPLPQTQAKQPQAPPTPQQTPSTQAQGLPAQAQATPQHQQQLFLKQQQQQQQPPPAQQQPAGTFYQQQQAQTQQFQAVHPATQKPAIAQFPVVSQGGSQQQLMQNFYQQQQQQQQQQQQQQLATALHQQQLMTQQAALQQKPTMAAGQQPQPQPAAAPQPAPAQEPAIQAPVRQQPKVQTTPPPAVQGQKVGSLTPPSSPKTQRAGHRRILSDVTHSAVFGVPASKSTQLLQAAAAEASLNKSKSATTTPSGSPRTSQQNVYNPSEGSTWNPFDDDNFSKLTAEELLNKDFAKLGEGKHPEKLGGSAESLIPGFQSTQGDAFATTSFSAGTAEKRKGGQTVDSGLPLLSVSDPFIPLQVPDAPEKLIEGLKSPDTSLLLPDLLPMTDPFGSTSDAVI
Method: On day one, cells were plated on a 10 cm dish so that they are ˜80% confluent at time oftransfection. Roughly 12 million cells were in a 10 cm dish at time of transfection. […] The DNA was comprised of a mixture (per 10 cm dish) containing 3 ug AAK1/HA/pIRES (full length human, NCBI accession no. NP_055726.2), 45 μg Flag/AP2MI/pcDNA (full length human), and 1.5 ml OPTI-MEM. The Lipofectamine 2000 is made up of a mixture (per 10 cm dish) containing 144 μl Lipofectamine 2000 and 1.5 ml OPTI-MEM. Each mixture was transferred to individual 15 ml tubes and incubated at RT for 5 minutes, and then the two mixes were combined and incubated at RT for 20 minutes. Growth media was then aspirated from each 10 cm plate and replaced with 10 ml of DMEM+10% FBS (no GPS). Finally, 3 ml DNA/Lipofectamine mix was added to each 10 cm dish and mix gently followed by incubate of plate overnight at 37° C. and 5% CO2.
On day three, compounds were diluted in 100% DMSO at 1000× final concentration, followed by 3-fold serial dilutions for a total of 5 concentrations tested. Four compounds were tested per 10 cm dish. One ul of each compound dilution was then pipetted into a deep-well, 96-well plate, followed by addition of 500 μl DMEM+0.5% FBS into each well for a 2× final concentration of each compound. Cells were resuspended in a 10 cm dish by simple pipetting (HEK293 cells come off the plate that easy at this point) and then transferred to a 50 ml conical tube and pelleted by centrifugation at 1000 rpm for 5 min. Cell pellets were then resuspended in 2.75 ml DMEM+0.5% FBS per 10 cm dish and 100 μl of cell suspension transferred into each well of 96-well TC plate. Finally, 100 μl of 2× compound diluted in DMEM+0.5% FBS was then added into wells containing cell suspension for a 1× final concentration. Plates were then incubated at 37° C. and 5% CO2 for 3 hours followed by transferring of cell suspensions from each well into 12-tube PCR strips. The PCR strips were spun in a tip rack at 1000 rpm for 5 minutes to pellet cells and media was then removed by pipetting without disturbing the cell pellet.
Five ul of 10× NuPage Sample Reducing Agent (with 50 mM DTT) was to each sample followed by heat denaturing at 70 C for 10 min on PCR machine. […] For controls, 2 ng of phospho-mu2 or 20 ng mu2/Flag proteins were loaded in the last well of each gel. After SDS-PAGE, samples on each gel were transferred to PVDF membrane using an iBlot and membranes were blocked for one hour in TBST+5% milk, followed by wash 3× for 5-10 min with TBST.
Finally, the camera was set up to take a picture every 30 seconds for 10 minutes and the best image saved for each blot with no saturated signal (when the signal is saturated, the bands will be highlighted red). A volume analysis on each band was performed to obtain density values. Percent inhibition was calculated for each sample by first normalizing to total Mu2 expression levels and then comparing to 0% and 100% controls. IC50 values were then calculated using Excel fitting software.

[3] = phospho-mu2, given as IC50 range

T1 sequence (Q2M2I8 whole entry): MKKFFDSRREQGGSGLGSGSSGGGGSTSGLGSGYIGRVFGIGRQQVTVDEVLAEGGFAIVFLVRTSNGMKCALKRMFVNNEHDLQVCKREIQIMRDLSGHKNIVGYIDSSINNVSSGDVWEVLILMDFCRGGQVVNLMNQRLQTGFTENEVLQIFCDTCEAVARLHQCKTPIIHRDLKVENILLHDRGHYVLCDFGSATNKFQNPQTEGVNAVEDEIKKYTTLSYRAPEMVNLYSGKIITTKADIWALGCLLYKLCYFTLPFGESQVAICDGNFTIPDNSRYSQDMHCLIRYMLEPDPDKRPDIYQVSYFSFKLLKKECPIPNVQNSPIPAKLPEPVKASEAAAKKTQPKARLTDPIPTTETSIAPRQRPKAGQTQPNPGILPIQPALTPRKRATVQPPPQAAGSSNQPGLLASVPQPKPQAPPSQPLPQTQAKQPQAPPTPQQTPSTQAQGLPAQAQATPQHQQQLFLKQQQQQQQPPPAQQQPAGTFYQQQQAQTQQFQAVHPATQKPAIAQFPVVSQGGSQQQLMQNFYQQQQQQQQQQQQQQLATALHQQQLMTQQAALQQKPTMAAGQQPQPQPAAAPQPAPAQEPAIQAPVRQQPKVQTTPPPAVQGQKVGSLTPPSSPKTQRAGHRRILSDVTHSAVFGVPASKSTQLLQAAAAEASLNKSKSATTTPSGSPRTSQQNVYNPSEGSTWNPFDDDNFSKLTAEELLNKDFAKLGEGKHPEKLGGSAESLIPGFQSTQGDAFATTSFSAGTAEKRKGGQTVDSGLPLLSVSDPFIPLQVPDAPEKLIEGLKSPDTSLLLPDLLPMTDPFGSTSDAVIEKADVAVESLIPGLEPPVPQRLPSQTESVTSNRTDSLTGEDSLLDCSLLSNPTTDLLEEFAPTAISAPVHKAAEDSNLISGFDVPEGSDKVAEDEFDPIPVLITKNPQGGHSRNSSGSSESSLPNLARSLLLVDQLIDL

Compound	IC50 ([1]; given as IC50 range) [nM]	IC50 [2, 3] [nM]	IC50 ([1]; 3 hours at room temperature) [nM]	IC50 ([2]; phospho-mu2 normalized to total Mu2) [nM]
Cc1nccc2c1c(=O)n(C)c1cc(OCC(N)CC(F)(F)F)c(Br)cc21 (single isomer, unassigned) [Example 138, 8-(2-amino-4,4,4-trifluorobutoxy)-9-bromo-4,6-dimethylbenzo[c][2,7]naphthyridin-5(6H)-one]	1 to 10	10 to 100	–	–
Cc1nccc2c1c(=O)n(C)c1cc(OCC(N)CC(F)(F)F)c(Br)cc21 (single isomer, unassigned) [Example 139, 8-(2-amino-4,4,4-trifluorobutoxy)-9-bromo-4,6-dimethylbenzo[c][2,7]naphthyridin-5(6H)-one]	< 1	1 to 10	–	–
Cc1nccc2c1c(=O)n(C)c1cc(OC[C@@H](N)CC(C)C)c(-c3ccccn3)cc21 [Example 86, (S)-8-((2-amino-4-methylpentyl)oxy)-4,6-dimethyl-9-(pyridin-2-yl)benzo[c][2,7]naphthyridin-5(6H)-one]	10 to 100	10 to 100	–	–
Cn1c(=O)c2cnccc2c2cc(Cl)c(OCC(N)CCC(F)(F)F)cc21 (stereo not shown) [Example 116, 8-((2-amino-5,5,5-trifluoropentyl)oxy)-9-chloro-6-methylbenzo[c][2,7]naphthyridin-5(6H)-one]	10 to 100	10 to 100	–	–
Cn1c(=O)c2c(N)nccc2c2ccc(OCC(N)CCC(F)(F)F)cc21 (stereo not shown) [Example 119, 4-amino-8-((2-amino-5,5,5-trifluoropentyl)oxy)-6-methylbenzo[c][2,7]naphthyridin-5(6H)-one]	–	1 to 10	–	–
Cn1c(=O)c2c(N)nccc2c2ccc(OCC(N)CCC(F)(F)F)cc21 (stereo not shown) [Example 120, 4-amino-8-((2-amino-5,5,5-trifluropentyl)oxy)-6-methylbenzo[c][2,7]naphthyridin-5(6H)-one]	–	1 to 10	–	–
Cn1c(=O)c2cnccc2c2cc(C#N)c(OCC(N)CCC(F)(F)F)cc21 (stereo not shown) [Example 126, 8-((2-amino-5,5,5-trifluoropentyl)oxy)-6-methyl-5-oxo-5,6-dihydrobenzo[c][2,7]naphthyridine-9-carbonitrile]	–	–	16	56
Cc1nccc2c1c(=O)n(C)c1cc(OC[C@@H](N)CC(C)C)c(C(C)C)cc21 [Example 129, (S)-8-((2-amino-4-methylpentyl)oxy)-9-isopropyl-4,6-dimethylbenzo[c][2,7]naphthyridin-5(6H)-one]	1 to 10	1 to 10	–	–
Cc1nccc2c1c(=O)n(C)c1cc(OCC(O)CNC(C)C)ccc21 (stereo not shown) [Example 147, 8-(2-hydroxy-3-(isopropylamino)propoxy)-4,6-dimethylbenzo[c][2,7]naphthyridin-5(6H)-one]	–	–	1330	–
Cc1nccc2c1c(=O)n(C)c1cc(OCC(O)CNC(C)C)c(Br)cc21 (stereo not shown) [Example 149, 9-bromo-8-(2-hydroxy-3-(isopropylamino)propoxy)-4,6-dimethylbenzo[c][2,7]naphthyridin-5(6H)-one]	10 to 100	–	–	–
CC(C)CC(C)COc1ccc2c3ccncc3c(=O)n(C)c2c1 (stereo not shown) [Example 150, 8-((2,4-dimethylpentyl)oxy)-6-methylbenzo[c][2,7]naphthyridin-5(6H)-one]	10 to 100	–	–	–
CC(C)CCCOc1ccc2c3ccncc3c(=O)n(C)c2c1 [Example 151, 6-methyl-8-((4-methylpentyl)oxy)benzo[c][2,7]naphthyridin-5(6H)-one]	10 to 100	–	–	–
Cc1nccc2c1c(=O)n(C)c1cc(OC[C@@H](O)CC(C)C)ccc21 [Example 152, (S)-8-((2-hydroxy-4-methylpentyl)oxy)-4,6-dimethylbenzo[c][2,7]naphthyridin-5(6H)-one]	10 to 100	–	–	–
Cc1nccc2c1c(=O)n(C)c1cc(OCC(O)COC(C)C)ccc21 (stereo not shown) [Example 153, 8-(2-hydroxy-3-isopropoxypropoxy)-4,6-dimethylbenzo[c][2,7]naphthyridin-5(6H)-one]	100 to 2000	–	–	–
CC(C)CC(C)COc1cc2c(cc1Br)c1ccncc1c(=O)n2C (stereo not shown) [Example 154, 9-bromo-8-((2,4-dimethylpentyl)oxy)-6-methylbenzo[c][2,7]naphthyridin-5(6H)-one]	10 to 100	–	–	–
Cc1nccc2c1c(=O)n(C)c1cc(OCC(C)CC(C)C)ccc21 (stereo not shown) [Example 155, 8-((2,4-dimethylpentyl)oxy)-4,6-dimethylbenzo[c][2,7]naphthyridin-5(6H)-one]	100 to 2000	–	–	–
Cc1nccc2c1c(=O)n(C)c1cc(OCCCC(C)C)ccc21 [Example 156, 4,6-dimethyl-8-((4-methylpentyl)oxy)benzo[c][2,7]naphthyridin-5(6H)-one]	10 to 100	–	–	–
CC(C)CC(C)COc1ccc2c3ccncc3c(=O)n(C)c2c1 (stereo not shown) [Example 157, 8-((2,4-dimethylpentyl)oxy)-6-methylbenzo[c][2,7]naphthyridin-5(6H)-one]	10 to 100	–	–	–
CC(C)CC(C)COc1ccc2c3ccncc3c(=O)n(C)c2c1 (stereo not shown) [Example 158, 8-((2,4-dimethylpentyl)oxy)-6-methylbenzo[c][2,7]naphthyridin-5(6H)-one]	10 to 100	–	–	–

Continued, values first:

IC50 ([1]; given as IC50 range) [nM]	IC50 [2, 3] [nM]	IC50 ([1]; 3 hours at room temperature) [nM]	IC50 ([2]; phospho-mu2 normalized to total Mu2) [nM]	Compound
1 to 10	1 to 10	–	–	CC(C)C[C@H](N)COc1cc2[nH]c(=O)c3cnccc3c2cc1Br [Example 108, (S)-8-((2-amino-4-methylpentyl)oxy)-9-bromobenzo[c][2,7]naphthyridin-5(6H)-one]
1 to 10	1 to 10	–	–	Cc1cc2c(cc1OC[C@@H](N)CC(C)C)[nH]c(=O)c1cnccc12 [Example 109, (S)-8-((2-amino-4-methylpentyl)oxy)-9-methylbenzo[c][2,7]naphthyridin-5(6H)-one]
1 to 10	1 to 10	–	–	Cn1c(=O)c2cnccc2c2cc(Br)c(OCC(N)CCC(F)(F)F)cc21 (stereo not shown) [Example 113, 8-((2-amino-5,5,5-trifluoropentyl)oxy)-9-bromo-6-methylbenzo[c][2,7]naphthyridin-5(6H)-one]
1 to 10	10 to 100	–	–	Cn1c(=O)c2cnccc2c2cc(-c3cnco3)c(OCC(N)CCC(F)(F)F)cc21 (stereo not shown) [Example 114, 8-((2-amino-5,5,5-trifluoropentyl)oxy)-6-methyl-9-(oxazol-5-yl)benzo[c][2,7]naphthyridin-5(6H)-one]
1 to 10	1 to 10	–	–	Cn1c(=O)c2cnccc2c2cc(Cl)c(OCC(N)CCC(F)(F)F)cc21 (stereo not shown) [Example 115, 8-((2-amino-5,5,5-trifluoropentyl)oxy)-9-chloro-6-methylbenzo[c][2,7]naphthyridin-5(6H)-one]
1 to 10	1 to 10	–	–	Cn1c(=O)c2cnccc2c2cc(Cl)c(OCC(N)CCC(F)(F)F)cc21 (stereo not shown) [Example 117, 8-((2-amino-5,5,5-trifluoropentyl)oxy)-9-chloro-6-methylbenzo[c][2,7]naphthyridin-5(6H)-one]
1 to 10	10 to 100	–	–	Cn1c(=O)c2c(N)nccc2c2ccc(OCC(N)CCC(F)(F)F)cc21 (stereo not shown) [Example 118, 4-amino-8-((2-amino-5,5,5-trifluoropentyl)oxy)-6-methylbenzo[c][2,7]naphthyridin-5(6H)-one]
1 to 10	1 to 10	–	–	CC(C)C[C@H](N)COc1cc2c(cc1C(F)F)c1ccncc1c(=O)n2C [Example 121, (S)-8-((2-amino-4-methylpentyl)oxy)-9-(difluoromethyl)-6-methylbenzo[c][2,7]naphthyridin-5(6H)-one]
1 to 10	1 to 10	–	–	Cc1nccc2c1c(=O)n(C)c1cc(OC[C@@H](N)CC(C)C)c(Br)cc21 [Example 122, (S)-8-((2-amino-4-methylpentyl)oxy)-9-bromo-4,6-dimethylbenzo[c][2,7]naphthyridin-5(6H)-one]
